# Values quoted from earlier work in PMC9854340 (RSC Advances, 2023).
# Key:
# [1] = system: HL-60 human myeloblastic leukemia cells; settings: HL-60 cells, MTT; data taken from a previous report
# [2] = folding square to folded form; CH3CN-d3; van't Hoff plot; previous report
substance,measurement,setting,value
Ascidiacyclamide [Peptide 1a],ED50,[1],32.9 ± 0.9 µg/mL
same,ΔH°,[2],-2.28 kcal/mol
same,ΔS°,[2],-0.009417 kcal/mol
